Assay results taken from patent US20090088417A1, “VANILLOID RECEPTOR ANTAGONIST FOR PREVENTION AND TREATMENT OF DRUG DEPENDENCE AND ADDICTION” (priority 2006, published 2009).
“Also recorded” adds a separate entry of the source.

Legend:
male ICR mouse = experiment: Conditioned place preference (CPP) test, development of psychological dependence on cocaine; assay type: in vivo; conditions: measured on ninth day
Protocol: In the present invention, a conditioned place preference (CPP) test is used to monitor the degree of alleviation in drug dependence and addiction. The CPP system used in the present invention includes a white box, a black box and a pathway connecting the two boxes with each other. Mice are used as test animals and effects on preference/aversion are analyzed by measuring residence times of the mice in the two boxes.
Development of psychological dependence on cocaine was determined according to the CPP (conditioned place preference) test. […]
Step 1 (Basic Test): On the first day of the test, the Guillotine door between the two boxes was opened, and a male ICR mouse having a body weight of 20˜25 g made available by MJ Ltd. (Seoul) was accommodated in the CPP system so that it could move freely therein for 5 minutes. […] Then, residence times of the mouse in the two boxes were measured for 15 minutes to obtain reference values. […]
Step 3 (Test Step): On the ninth day of the test, the Guillotine door between the two boxes was opened, a pathway was provided in the middle of the boxes, and then a mouse, to which no drug was administered, was allowed to remain in the two boxes for 15 minutes. Then, residence times in the white box and in the black box were measured and compared to the values measured on the second day of the test. […]

mice [1] = experiment: CPP test, recurrence of psychological dependence on cocaine after withdrawal; assay type: in vivo, mouse; conditions: capsazepine 10 mg/kg single-dose pretreatment + cocaine on fifteenth day after 5 days of saline; p<0.05 vs cocaine group
Protocol: The following CPP system was used to perform the test. The CPP system included two boxes, each having a dimension of 15 cm×15 cm×15 cm (width×depth×height). One of the boxes was made of white acryl sheets on three sides thereof, while the other was made of black acryl sheets on three sides thereof. […] Between the two boxes, a gray-colored pathway having a dimension of 3×3×7.5 cm was provided. Also, a Guillotine door capable of interrupting the pathway was provided. […] The test was performed under an illuminance maintained at 20 Lux.
Test animals were divided into four groups. Psychological saline was administered to the first test group (10 mice), and cocaine was administered to the remaining second test group, third test group and fourth test group (30 mice in total). On the ninth day of the test, development of a dependence on cocaine was checked, and then saline was administered alone for the subsequent 5 days to allow the mice to lose the cocaine dependence. […] Residence times in the CPP boxes were measured as described above.

[2] = cited from earlier work
mice [3] = experiment: Locomotor activity, behavioral sensitization caused by cocaine (displacement from spontaneous movements); assay type: in vivo, mouse
Protocol: Behavioral sensitization in recurrence of psychological dependence on cocaine was determined according to the locomoter activity. See [Yoo et al. 2003, Neurosci Lett. 433, pp 37-40].
Test animals were divided into four groups as follows: physiological saline was administered to the first test group, cocaine was administered to the second test group, cocaine +2.5 mg/kg of capsazepine (pretreatment) was administered to the third test group, and cocaine +5.0 mg/kg of capsazepine (pretreatment) was administered to the fourth test group.
A locomotor box was used for the test. […] The bottom of the box was covered with a black sheet having substantially the same size as the former.
Step (1)—Basic Test: On the first day, mice were allowed to move freely in the locomotor box for 30 minutes so that they were accommodated.
After the accommodation period, 15 mg/kg of cocaine was administered to the mice via intraperitoneal injection, and then the mice were allowed to remain in the locomotor box. The displacement from spontaneous movements of the mice was measured. […] On the sixth day of the test, the drug was administered again to the mice and the displacement from spontaneous movements was measured. […] Then, displacement from spontaneous movements was measured. […]

Structure (SMILES) | Effect on development of psychological dependence on cocaine (residence times in CPP boxes) (male ICR mouse; capsaicin 0.3 mg/kg pretreatment + cocaine, p<0.01 vs saline group) | Inhibition of recurrence of psychological dependence on cocaine (residence times in CPP boxes) (mice [1]) | Analgesic actions in an animal test ([2]; Kwak et al., 1998, Santos and Calixto, 1997) | Analgesic or anti-inflammatory effect ([2]; Perkins and Campbell, 1992) | Inhibition of development of psychological dependence on cocaine (residence times in CPP boxes) (male ICR mouse; capsazepine 2.5 and 5 mg/kg i.p., 30 minutes before cocaine 15 mg/kg i.p., p<0.05 vs cocaine group) | Inhibition of behavioral sensitization after drug withdrawal (displacement from spontaneous movements, 60 minutes) (mice [3]; capsazepine 5 mg/kg pretreated group, cocaine 15 mg/kg on twelfth day after withdrawal period of five days, p<0.01) | Inhibition of behavioral sensitization (displacement from spontaneous movements, 60 minutes) (mice [3]; capsazepine 5 mg/kg pretreatment + cocaine 15 mg/kg i.p. repeated, sixth day of the test, p<0.001)
COc1cc(CNC(=O)CCCC/C=C/C(C)C)ccc1O [capsaicin] | increases dependence on cocaine; also recorded: significant increase in psychological dependence on cocaine | – | – | – | – | – | –
Oc1cc2c(cc1O)CN(C(=S)NCCc1ccc(Cl)cc1)CCC2 [capsazepine] | – | significantly inhibits recurrence of dependence on cocaine; also recorded: showed inhibition of such recurrence | effective for providing analgesic actions | does not provide an analgesic or anti-inflammatory effect | significantly inhibits development of psychological dependence on cocaine | completely inhibited | significantly inhibits behavioral sensitization caused by cocaine; also recorded: behavioral sensitization was inhibited
